Reference: patent US11608335B2, “Somatostatin modulators and uses thereof” (CRINETICS PHARMACEUTICALS, INC., priority 2018, dated 2023)
Read-outs that look alike come from different tables or passages of the source.

Columns and labels:
[1] = molecular target: T1, human somatostatin receptor subtype 2 (Homo sapiens, UniProt P30874); experiment: cAMP assay for SST2R (inhibition of cAMP via human SST2 receptor); type: cell-based; conditions: Table B, read-out: SST2 potency
T1 construct: expressed in transfected cells
T1 sequence (P30874 whole entry): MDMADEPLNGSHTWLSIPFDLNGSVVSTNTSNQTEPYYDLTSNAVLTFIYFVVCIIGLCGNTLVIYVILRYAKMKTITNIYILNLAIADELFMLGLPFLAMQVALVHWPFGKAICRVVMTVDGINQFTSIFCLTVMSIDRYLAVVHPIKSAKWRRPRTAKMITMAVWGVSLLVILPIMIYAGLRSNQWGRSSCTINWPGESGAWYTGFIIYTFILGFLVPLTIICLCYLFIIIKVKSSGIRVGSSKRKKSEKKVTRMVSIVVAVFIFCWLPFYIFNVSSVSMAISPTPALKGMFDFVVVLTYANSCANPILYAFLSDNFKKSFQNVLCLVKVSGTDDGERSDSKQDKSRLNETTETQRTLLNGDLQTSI
Description: cAMP Assay Protocol for SST2R:

[2] = molecular target: human somatostatin receptor subtype 5 (Homo sapiens, UniProt P35346); experiment: cAMP assay for SST5R (inhibition of cAMP via human SST5 receptor)
Sequence of human somatostatin receptor subtype 5 (P35346 whole entry): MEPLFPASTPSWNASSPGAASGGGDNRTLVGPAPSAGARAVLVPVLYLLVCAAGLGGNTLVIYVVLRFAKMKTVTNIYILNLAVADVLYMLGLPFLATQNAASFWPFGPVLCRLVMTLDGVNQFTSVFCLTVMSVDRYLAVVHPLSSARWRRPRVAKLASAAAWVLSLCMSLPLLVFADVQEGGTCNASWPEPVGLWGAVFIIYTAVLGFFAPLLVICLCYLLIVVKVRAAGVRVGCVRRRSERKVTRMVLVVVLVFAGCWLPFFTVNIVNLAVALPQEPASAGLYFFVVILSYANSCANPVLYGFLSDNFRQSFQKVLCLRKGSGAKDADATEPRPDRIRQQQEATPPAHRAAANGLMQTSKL

[3] = read-out: SST5 potency, inhibition of cAMP via human SST5 receptor, Table B
[4] = SST5 over SST2, given as number (comparison compounds)

SMILES	EC50 [1]	Fold selectivity for SST5 vs SST2 ([2]; SST5 over SST2, class symbols)	EC50 [2, 3]	EC50 [2]	Fold selectivity for SST5 vs SST2 [2, 4]
CC(N)C1CN(c2c(-c3cc(F)cc(C(F)(F)F)c3)cncc2-c2nc3cc(F)cc(F)c3[nH]2)C1 (stereo not shown) [Compound 1-71, 1-{1-[3-(4,6-difluoro-1H-1,3-benzodiazol-2-yl)-5-[3-fluoro-5-(trifluoromethyl)phenyl]pyridin-4-yl]azetidin-3-yl}ethan-1-amine]	> 1 µM	+++ (+++=≥500)	< 0.01 µM	–	–
Cc1cccc2nc(-c3cncc(-c4ccnc(C#N)c4)c3N3CC[C@H](N)C3)[nH]c12 [Compound 2-128, 4-[(3S)-3-aminopyrrolidin-1-yl]-5-(4-methyl-1H-1,3-benzodiazol-2-yl)-[3,4′-bipyridine]-2′-carbonitrile]	0.1 to 1 µM	+++ (+++=≥500)	< 0.01 µM	< 0.01 µM	–
Cc1cc(F)cc(-c2cncc(-c3nc4c(F)cc(F)cc4[nH]3)c2N2CC(CN)C2)c1 [Compound 1-7, 1-{1-[3-(4,6-difluoro-1H-1,3-benzodiazol-2-yl)-5-(3-fluoro-5-methylphenyl)pyridin-4-yl]azetidin-3-yl}methanamine]	> 1 µM	+++ (+++=≥500)	< 0.01 µM	< 0.01 µM	–
Cn1c(-c2cncc(-c3cccc(C#N)c3)c2N2CC[C@H](N)C2)nc2cccc(Cl)c21 [Compound 2-76, 3-{4-[(3S)-3-aminopyrrolidin-1-yl]-5-(7-chloro-1-methyl-1H-1,3-benzodiazol-2-yl)pyridin-3-yl}benzonitrile]	0.1 to 1 µM	+++ (+++=≥500)	< 0.01 µM	< 0.01 µM	–
CC1(N)CCN(c2c(-c3cc(F)cc(OCC#N)c3)cncc2-c2nc3cccc(F)c3[nH]2)C1 (stereo not shown) [Compound 2-27, 2-{3-[4-(3-amino-3-methylpyrrolidin-1-yl)-5-(4-fluoro-1H-1,3-benzodiazol-2-yl)pyridin-3-yl]-5-fluorophenoxy}acetonitrile]	0.1 to 1 µM	++ (++=100 to 499)	< 0.01 µM	< 0.01 µM	–
Cc1cc(F)cc(-c2cncc(-c3nc4cc(Cl)ccc4[nH]3)c2N2CC(CN)C2)c1 [Compound 1-4, 1-{1-[3-(5-chloro-1H-1,3-benzodiazol-2-yl)-5-(3-fluoro-5-methylphenyl)pyridin-4-yl]azetidin-3-yl}methanamine]	> 1 µM	++ (++=100 to 499)	0.01 to 0.1 µM	0.01 to 0.1 µM	–
CC1(N)CCN(c2c(-c3ccc4cc[nH]c4c3)cncc2-c2nc3cccc(F)c3[nH]2)C1 (stereo not shown) [Compound 2-29, 1-[3-(4-fluoro-1H-1,3-benzodiazol-2-yl)-5-(1H-indol-6-yl)pyridin-4-yl]-3-methylpyrrolidin-3-amine]	0.1 to 1 µM	+ (+=10 to 99)	< 0.01 µM	< 0.01 µM	–
Cn1c(-c2cncc(-c3cc(F)cc(C#N)c3)c2N2CC[C@H](N)C2)nc2c(Cl)cccc21 [Compound 2-116, 3-{4-[(3S)-3-aminopyrrolidin-1-yl]-5-(4-chloro-1-methyl-1H-1,3-benzodiazol-2-yl)pyridin-3-yl}-5-fluorobenzonitrile]	> 1 µM	+++ (+++=≥500)	< 0.01 µM	< 0.01 µM	–
Cc1cccc2c1nc(-c1cncc(-c3ccc(F)c(C#N)c3)c1N1CC[C@H](N)C1)n2C [Compound 2-132, 5-{4-[(3S)-3-aminopyrrolidin-1-yl]-5-(1,4-dimethyl-1H-1,3-benzodiazol-2-yl)pyridin-3-yl}-2-fluorobenzonitrile]	> 1 µM	+++ (+++=≥500)	< 0.01 µM	< 0.01 µM	–
Cc1cccc2nc(-c3cncc(-c4ccnc(C#N)c4)c3N3CCC(C)(N)C3)[nH]c12 (stereo not shown) [Compound 2-123, 4-(3-amino-3-methylpyrrolidin-1-yl)-5-(4-methyl-1H-1,3-benzodiazol-2-yl)-[3,4′-bipyridine]-2′-carbonitrile]	0.01 to 0.1 µM	+++ (+++=≥500)	< 0.01 µM	< 0.01 µM	–
CC(N)C1(C)CN(c2c(-c3cccc(F)c3)cncc2-c2nc3cc(F)cc(F)c3[nH]2)C1 (stereo not shown) [Compound 1-68, 1-{1-[3-(4,6-difluoro-1H-1,3-benzodiazol-2-yl)-5-(3-fluorophenyl)pyridin-4-yl]-3-methylazetidin-3-yl}ethan-1-amine]	> 1 µM	+++ (+++=≥500)	< 0.01 µM	< 0.01 µM	–
N#Cc1cc(-c2cncc(-c3nc4c(F)ccc(F)c4[nH]3)c2N2CC[C@H](N)C2)ccc1F [Compound 2-44, 5-{4-[(3S)-3-aminopyrrolidin-1-yl]-5-(4,7-difluoro-1H-1,3-benzodiazol-2-yl)pyridin-3-yl}-2-fluorobenzonitrile]	0.1 to 1 µM	+++ (+++=≥500)	< 0.01 µM	< 0.01 µM	–
N#Cc1cc(F)cc(-c2cncc(-c3nc4ccccc4[nH]3)c2N2CC[C@H](N)C2)c1 [Compound 2-109, 3-{4-[(3S)-3-aminopyrrolidin-1-yl]-5-(1H-1,3-benzodiazol-2-yl)pyridin-3-yl}-5-fluorobenzonitrile]	0.1 to 1 µM	++ (++=100 to 499)	< 0.01 µM	< 0.01 µM	–
Cc1cccc(-c2cncc(-c3nc4cccc(C)c4[nH]3)c2N2CC[C@@H](N)C2)c1 [Compound 2-199, (3R)-1-[3-(4-methyl-1H-1,3-benzodiazol-2-yl)-5-(3-methylphenyl)pyridin-4-yl]pyrrolidin-3-amine]	> 1 µM	+ (+=10 to 99)	0.1 to 1 µM	0.1 to 1 µM	–
Cc1cccc(-c2cncc(-c3nc4c(C)cccc4[nH]3)c2N2CCC(N)CC2)c1	< 0.01 µM	–	–	> 1 µM	0.002
Cc1cc(-c2cncc(-c3nc4c(F)cccc4[nH]3)c2N2CC[C@H](N)C2)ccn1 [Compound 2-181, (3S)-1-[5-(4-fluoro-1H-1,3-benzodiazol-2-yl)-2′-methyl-[3,4′-bipyridin]-4-yl]pyrrolidin-3-amine]	> 1 µM	++ (++=100 to 499)	0.01 to 0.1 µM	0.01 to 0.1 µM	–
N#Cc1cc(F)cc(-c2cncc(-c3nc4ccc(Cl)cc4[nH]3)c2N2CC[C@H](N)C2)c1 [Compound 2-198, 3-{4-[(3S)-3-aminopyrrolidin-1-yl]-5-(6-chloro-1H-1,3-benzodiazol-2-yl)pyridin-3-yl}-5-fluorobenzonitrile]	> 1 µM	++ (++=100 to 499)	< 0.01 µM	< 0.01 µM	–
NCC1CN(c2c(-c3cc(F)cc(Cl)c3)cncc2-c2nc3cc(F)cc(F)c3[nH]2)C1 [Compound 1-39, 1-{1-[3-(3-chloro-5-fluorophenyl)-5-(4,6-difluoro-1H-1,3-benzodiazol-2-yl)pyridin-4-yl]azetidin-3-yl}methanamine]	> 1 µM	+++ (+++=≥500)	< 0.01 µM	< 0.01 µM	–
Cc1ccnc2nc(-c3cncc(-c4cccc(Cl)c4)c3N3CCC(N)CC3)[nH]c12	0.01 to 0.1 µM	–	–	> 1 µM	0.009
